Peptide text beside a SMILES is read from it.
What was measured:
ARPE-19 cells [1] = experiment: ARPE-19 cell lysis (Sytox Green); format: cell-based, human; conditions: 3.16-100 μM peptide, 2 h
Method: These figures illustrate ARPE-19 cell lysis. ARPE-19 cells were grown in 96-well plates to 75-85% confluence. Peptides at 10 mM were diluted in serum-free DMEM:F12 media into a 20 μM working solution (a 2× solution). Sytox Green was prepared in serum-free DMEM:F12 at a 1 μM working solution (a 2× solution). Equivalent volumes of the peptide and Sytox Green solutions were added to empty 96-well plates and mixed gently. Final peptide concentration was 10 μM. ARPE-19 cells (˜80% confluent in 96-well plates) were washed with DPBS and then incubated in 100 μL of peptide/Sytox Green mixture for 2 h at 37° C. Cells were fixed in 4% paraformaldehyde solution in DPBS and then incubated in 10 μM Hoechst solution for 10 min, washed, and imaged on a Yokogawa CQ1 high-content imager. CellPathfinder software was used to count live/dead cells in 4 fields of view at 20× magnification. Percent (%) lysis was calculated by dividing the number of Sytox Green+ nuclei by the total number of Hoechst+ nuclei.
ARPE-19 cells were grown in 96-well plates to 75-85% confluence. Peptides at 10 mM were diluted in serum-free DMEM: F12 media to solutions between […]. Sytox Green was prepared in serum-free DMEM: F12 media at a 1 μM working solution. Equivalent volumes of the peptide and Sytox Green solutions were added to empty 96-well plates and mixed gently. Final peptide concentration was 3.16-100 μM. ARPE-19 cells (˜80% confluent in 96-well plates) were washed with DPBS and then incubated in 100 μL of peptide/Sytox Green mixture for 2 h at 37° C. Cells were fixed in 4% paraformaldehyde solution in DPBS and then incubated in 10 μM Hoechst solution for 10 min, washed, and imaged on a Yokogawa CQ1 high-content imager. CellPathfinder software was used to count live/dead cells in 4 fields of view at 20× magnification. Percent (%) lysis was calculated by dividing the number of Sytox Green+ nuclei by the total number of Hoechst+ nuclei. Non-linear regression was used to calculate EC50 values.

ARPE-19 cells [2] = experiment: ARPE-19 cholesterol import (BODIPY-Cholesterol); format: cell-based, human; conditions: ARPE-19, 0.37-30 μM peptide, FIG. 15
Method: FIG. 12 and FIGS. 14A-14B illustrate the results of ARPE-19 cholesterol import testing. ARPE-19 cells were seeded on 96-well plates at 25,000 cells per well and grown to confluence. A 2× solution of 500 μM DMPC and 50 μM BODIPY-Cholesterol were prepared in serum free DMEM: F12. Peptides were diluted to 20 μM in serum free DMEM: F12 (a 2× solution). Peptides were added to lipid solution in equal parts (60 μL each) and were incubated for 1 hour at 37° C. ARPE-19 cells were serum starved in serum free DMEM: F12 for 1 hour at 37° C. Peptide: Lipid complexes (100 μL total volume per well) were transferred to ARPE-19 cells for 2 hours at 37° C. Cells were washed, fixed, and intracellular fluorescence was read on Promega GloMax at 475 nm excitation, 500-550 emission. Fluorescence values were background corrected from no treatment conditions. Data are presented as mean+SD for two runs.
FIG. 15 illustrates ARPE-19 cholesterol import titration curves for a subset of the peptides. ARPE-19 cells were seeded on 96-well plates at 25,000 cells per well and grown to confluence. A 2× solution of 500 μM DMPC and 50 μM BODIPY-Cholesterol was prepared in serum free DMEM: F12. Peptides were diluted to 0.74-60 μM in serum free DMEM: F12 (2× solutions). Peptides were added to lipid solution in equal parts (60 μL each) to create final peptide concentrations of 0.37-30 µM and incubated for 1 hour at 37° C. ARPE-19 cells were serum starved in serum free DMEM: F12 for 1 hour at 37° C. Peptide: Lipid complexes (100 μL total volume per well) were transferred to ARPE-19 cells for 2 hours at 37° C. Cells were washed, fixed, and intracellular fluorescence was read on Promega GloMax at 475 nm excitation, 500-550 emission. Fluorescence values were background corrected from no treatment conditions. […]
ARPE-19 cells were seeded on 96-well plates at 25,000 cells per well and grown to confluence. […] Cells were washed, fixed, and intracellular fluorescence was read on Promega GloMax at 475 nm excitation, 500-550 emission. Fluorescence values were background corrected from no treatment conditions. […]

HepG2 cells [3] = experiment: HepG2 cholesterol import (BODIPY-Cholesterol); format: cell-based; conditions: HepG2, peptide:lipid complexes from 30 μM diluted 1:3
Method: HepG2 cells were seeded on a 96-well plate at 10,000 cells per well and grown to confluence. A solution of 500 μM DMPC and 50 μM BODIPY-Cholesterol was prepared in serum free EMEM. Peptides were diluted to 20 μM in serum free EMEM (a 2× solution). Peptides were added to lipid solution in equal parts (60 μL each) to create final 1× concentration and incubated for 1 hour at 37° C. HepG2 cells were serum starved in serum-free EMEM for 1 hour at 37° C. Peptide: Lipid complexes (100 μL total volume per well) were transferred to HepG2 cells for 2 hours at 37° C. Cells were washed, fixed, and intracellular fluorescence was read on Promega GloMax at 475 nm excitation, 500-550 emission. Fluorescence values were background corrected from no treatment conditions. Data are presented as mean+SD for two runs.
HepG2 cells were seeded on 96-well plates at 10,000 cells per well and grown to confluence. Peptide: Lipid complexes were created by preparing a solution of serum-free EMEM containing 30 μM peptide, 750 μM DMPC, and 75 μM BODIPY-Cholesterol. Peptide: Lipid complexes were serially diluted 1:3 for 5 concentrations, and incubated for 1 hour at 37° C. […] Cells were washed, fixed, and intracellular fluorescence was read on Promega GloMax at 475 nm excitation, 500-550 emission. Fluorescence values were background corrected from no treatment conditions. […]

HepG2 cells [4] = experiment: HepG2 GAG dependent cholesterol import (with or without heparin); format: cell-based; conditions: HepG2, 10 μM peptide, with or without 100 μg/mL heparin
Method: HepG2 cells were seeded on 96-well plates at 10,000 cells per well and grown to confluence. A 2× solution of 500 μM DMPC and 50 μM BODIPY-Cholesterol with or without 100 μg/mL heparin was prepared in serum free EMEM. Peptides were diluted to 20 μM in serum-free EMEM (a 2× solution). Peptides were added to lipid solution in equal parts (60 μL each) and incubated for 1 hour at 37° C. HepG2 cells were serum starved in serum-free EMEM for 1 hour at 37° C. Peptide: Lipid complexes (100 μL total volume per well) were transferred to HepG2 cells for 2 hours at 37° C. Cells were washed, fixed, and intracellular fluorescence was read on Promega GloMax at 475 nm excitation, 500-550 emission. Fluorescence values were background corrected from no treatment conditions. Data are presented ±SD for 2 runs.

[5] = peptide binding to non-oxidized and oxidized lipids (SPR); conditions: immobilized peptide; RU normalized to DMPC
Method: FIGS. 25A-25O show peptide binding activity to non-oxidized and oxidized lipids via SPR for indicated peptides. Peptides were reconstituted to 50 μg/mL in 10 mM acetate buffer, pH 4.5 and immobilized to ˜200 RU on a CM5 chip via amine coupling. Non-oxidized lipids (DMPC & POPC) and oxidized lipids (POVPC & KOdiA-PC) were diluted to 100 µM in HBS-EP running buffer and exposed to the chip for binding (n=3) at a flow rate of […] for 120 seconds. The surface was regenerated with 20% EtOH. T-001 served as a positive control and T-031 served as a negative control on each chip. For each peptide, the RU response for all lipids was normalized to the DMPC RU values.

In the case of CC[C@H](C)[C@H](NC(=O)CNC(=O)[C@H](CO)NC(=O)[C@@H](NC(=O)[C@H](Cc1c[nH]c2ccccc12)NC(=O)[C@H](Cc1c[nH]cn1)NC(=O)[C@H](CCC(=O)O)NC(=O)[C@H](Cc1ccccc1)NC(=O)[C@H](CCCNC(=N)N)NC(=O)[C@H](CC(C)C)NC(=O)[C@H](CC(C)C)NC(=O)[C@H](CCCNC(=N)N)NC(=O)[C@H](CCCCN)NC(=O)[C@H](CCCNC(=N)N)NC(=O)[C@H](CC(C)C)NC(=O)[C@H](CCCCN)NC(=O)[C@H](CCCNC(=N)N)NC(=O)[C@H](CC(C)C)NC(=O)[C@@H](N)Cc1c[nH]cn1)[C@@H](C)CC)C(=O)N[C@@H](Cc1ccc(O)cc1)C(=O)N[C@@H](CO)C(=O)N[C@@H](CCC(=O)O)C(=O)N[C@@H](CS)C(=O)N[C@@H](CCCCN)C(=O)N[C@@H](Cc1c[nH]cn1)C(=O)N[C@@H](CC(C)C)C(=O)N[C@H](C(=O)N[C@@H](CCC(N)=O)C(=O)N[C@@H](CCC(=O)O)C(=O)O)[C@@H](C)CC [T-025] (H-HLRKLRKRLLRFEHWISGIYSECKHLIQE-OH; N-terminus and C-terminus assumed), the EC50 (ARPE-19 cells [1]) is reported as 144 µM, the cholesterol import titration (ARPE-19 cells [2]) is reported as “concentration-dependent increase in cholesterol import” and the cholesterol import titration (HepG2 cells [3]) is reported as “concentration-dependent cholesterol import activity”. The “GAG dependence of cholesterol import” value (HepG2 cells [4]) was “rely on GAG binding for cholesterol import activity” and the “binding to oxidized lipids relative to DMPC” value [5] was “binding to at least one oxidized lipid that was equivalent or improved to binding against DMPC”.
